From patent US20230212159A1, “Process for the Production of Ferroportin Inhibitors” (Vifor (International) AG, priority 2020, published 2023)
Where two headings read alike, the source gives them in different places.

Biological target: T1, ferroportin (Fpn) (Mus musculus, UniProt Q9JHI9)
T1 construct: endogenous in cells; host or cells: J774 mouse macrophage cell line
T1 sequence (Q9JHI9 1-570): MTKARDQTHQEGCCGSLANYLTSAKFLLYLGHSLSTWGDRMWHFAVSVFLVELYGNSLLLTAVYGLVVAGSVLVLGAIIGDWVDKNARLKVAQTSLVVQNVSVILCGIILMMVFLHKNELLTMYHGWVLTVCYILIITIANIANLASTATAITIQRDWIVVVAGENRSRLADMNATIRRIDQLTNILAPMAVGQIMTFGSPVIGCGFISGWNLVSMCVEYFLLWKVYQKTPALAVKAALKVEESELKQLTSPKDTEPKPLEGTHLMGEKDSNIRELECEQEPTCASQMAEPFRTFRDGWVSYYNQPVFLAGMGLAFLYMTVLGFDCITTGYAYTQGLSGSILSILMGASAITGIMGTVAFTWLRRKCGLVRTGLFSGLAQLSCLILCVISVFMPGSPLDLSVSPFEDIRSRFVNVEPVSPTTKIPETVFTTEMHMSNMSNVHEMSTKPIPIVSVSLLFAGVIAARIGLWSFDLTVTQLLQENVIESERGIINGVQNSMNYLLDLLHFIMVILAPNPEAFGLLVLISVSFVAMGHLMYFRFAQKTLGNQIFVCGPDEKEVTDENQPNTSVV
Test: Hepcidin internalization assay (J774)
Assay type: cell-based
Source text: This cellular assay allows quantification of the binding of hepcidin to ferroportin (Fpn) through microscopic detection of internalization of a fluorescently labeled hepcidin into J774 cells. […] Binding of hepcidin to Fpn triggers internalization and degradation of both hepcidin and Fpn. However, the TMR (6-carboxytetramethylrhodamine) fluorophore attached to hepcidin remains associated with the cell after degradation of the hepcidin peptide backbone. Therefore, microscopic detection of cell-associated TMR fluorescence is a measure of hepcidin binding to Fpn and internalization of hepcidin and Fpn. If TMR-hepcidin is prevented from binding to Fpn, cellular TMR fluorescence remains low (Dürrenberger et al, 2013). The effect of small molecular weight Fpn inhibitor compounds in this assay was evaluated in vitro as described below.
J774 cells, harvested from ca. 80% confluent cultures, were plated at 8x10^5 cells/ml in complete medium (DMEM, 10% FBS, 1% Penicillin-Streptomycin) containing 200 µM Fe(III)NTA (nitrilotriacetic acid), 100 µl per well of 96 well MicroClear plates (Greiner; Cat. 655090) and grown at 37° C. with 5% CO2. After overnight incubation, cells were washed 3 times with prewarmed DMEM w/o phenol red, 30 µl/well of DMEM w/o phenol red was added after the final wash and 10 µl/well of dilution series of test compounds were added in triplicates. J774 cells were pre-incubated with test compounds at 37° C. with 5% CO2 for 15 min. before TMR-hepcidin was added at 25 nM final concentration. Cells were incubated in a total volume of 50 µl at 37° C. with 5% CO2 for 2 hours, then Hoechst 33342 dye was added to a final concentration of 0.5 µg/ml to stain nuclei and further incubated for 10 min. at 37° C. with 5% CO2. Cells were washed 3 times with PBS and fixed in 100 µl of 4% paraformaldehyde in PBS for 15 min. at room temperature. After removal of the paraformaldehyde solution, cells were washed 3 times with PBS leaving 100 µl per well and the plates were sealed with foil plate seal. TMR (530-550 nm excitation / 575-625 nm emission / 400 ms exposure time) and Hoechst 33342 (360-370 nm excitation / 420-460 nm emission / 10 ms exposure time) fluorescence images were acquired using a ScanR plate imager (Olympus) with a 20x high NA objective. Four pictures were acquired per well and fluorescence channel covering ca. 1500 cells per well. The acquired image data was analysed with the ScanR image analysis software. Image analysis included detection of nuclei (Hoechst 33342 fluorescence), identification of cell-associated regions, application of a virtual channel and thresholding for rolling-ball-type background reduction, followed by application of the Sum(Mean) algorithm to measure the TMR fluorescence associated with cells as a quantitative measure for internalized TMR- hepcidin. IC50 values were calculated with the Sum(Mean) raw data using “log(inhibitor) vs. response” curve fitting of Prism 5 software (GraphPad Software Inc., version 5.02). For each data set the fit of the “log(inhibitor) vs. response (three parameters)″ model was compared to the fit of the “log(inhibitor) vs. response - Variable slope (four parameters)″ model and the IC50 data of the preferred model was used. IC50 data of the Compounds according to formula (II) and (II′), that were tested in the hepcidin internalization assay are shown in Table 1.

[1] = J774 cells, (II) and (II′) tested as 3HCl-salts, n=2, read-out: Hepcidin internalization (J774) IC50
[2] = average of multiple measurements, hepcidin internalization assay, 3HCl-salts, read-out: J774 IC50

IC50 [1] [nM] | IC50 [2] [nM] | Structure (SMILES)
7.3 | 7 | O=C(NCc1ncccc1F)c1coc(CCNCCc2nc3ccccc3[nH]2)n1 [Compound (II)]
10.7 | – | CC[C@H](C)[C@@H]1NC(=O)[C@@H](NC(=O)[C@@H](NC(=O)[C@@H]2CCCN2C(=O)[C@H](Cc2ccccc2)NC(=O)[C@H](Cc2c[nH]cn2)NC(=O)[C@@H](NC(=O)[C@@H](N)CC(=O)O)[C@@H](C)O)[C@@H](C)CC)CSSC[C@@H](C(=O)N[C@@H](CCCCN)C(=O)N[C@H](C(=O)O)[C@@H](C)O)NC(=O)[C@@H]2CSSC[C@@H]3NC(=O)[C@@H]4CSSC[C@H](NC(=O)[C@H](Cc5ccccc5)NC1=O)C(=O)N[C@@H](CSSC[C@H](NC(=O)[C@H](CCCCN)NC(=O)[C@H](CO)NC(=O)[C@H](CCCNC(=N)N)NC(=O)[C@H](Cc1c[nH]cn1)NC3=O)C(=O)NCC(=O)N[C@@H](CCSC)C(=O)N2)C(=O)NCC(=O)N4 [hepcidin, reference compound]
5.9 | 6 | O=C(NCc1ncccc1Br)c1coc(CCNCCc2nc3ccccc3[nH]2)n1 [Compound (II′)]
